Test results published in ChEMBL document CHEMBL1137120, “Synthesis and biological evaluation of flavonoids as vasorelaxant agents” (2004).

Species on record: Rattus norvegicus
Test: Tested for vasorelaxant activity in rat thoracic aorta rings against PE-induced contractions
Type: functional

O=c1cc(-c2ccc3c(c2)OCO3)oc2cc(O)cc(O)c12
Maximal relaxation: 91.3%

Cc1ccc(-c2cc(=O)c3c(O)cc(O)cc3o2)cc1
Maximal relaxation: 77.2%

Cc1c(O)c(C)c2c(c1O)C(=O)C(O)C(c1ccc(O)cc1)O2 (centres undefined)
Maximal relaxation: 64.4%

O=c1cc(-c2cccc(Br)c2)oc2cc(O)cc(O)c12
Maximal relaxation: 95%

O=c1cc(-c2ccc(Cl)cc2)oc2cc(O)cc(O)c12
Maximal relaxation: 92.7%

COc1cccc(-c2cc(=O)c3c(O)cc(O)cc3o2)c1
Maximal relaxation: 80.8%

O=c1c(O[C@@H]2OC[C@@H](O)[C@H](O)[C@@H]2O)c(-c2ccc(O)c(O)c2)oc2cc(O)cc(O)c12
Maximal relaxation: 24.7%

O=c1c(O[C@@H]2OC[C@@H](O)[C@@H](O)[C@H]2O)c(-c2ccc(O)c(O)c2)oc2cc(O)cc(O)c12
Maximal relaxation: 35.1%

COCOc1c(-c2ccc(O)c(O)c2)oc2cc(O)cc(O)c2c1=O
Maximal relaxation: 71.6%

O=c1cc(-c2ccccc2)oc2cc(O[C@@H]3O[C@H](CO)[C@@H](O)C(O)[C@H]3O)c(O)c(O)c12 (single isomer, unassigned)
Maximal relaxation: 36.2%

O=c1c(O[C@@H]2O[C@H](CO)C(O)C(O)[C@H]2O)c(-c2ccc(O)c(O)c2)oc2cc(O)cc(O)c12 (single isomer, unassigned) [ISOQUERCETIN]
Maximal relaxation: 34%

C[C@@H]1O[C@@H](OC[C@H]2O[C@@H](Oc3c(-c4ccc(O)c(O)c4)oc4cc(O)cc(O)c4c3=O)C(O)[C@@H](O)[C@@H]2O)[C@H](O)[C@H](O)[C@H]1O (single isomer, unassigned) [RUTIN]
Maximal relaxation: 24.7%

O=c1cc(-c2ccc(O)c(O)c2)oc2cc(O)cc(O)c12 [LUTEOLIN]
Maximal relaxation: 70.2%

O=c1c(O)c(-c2ccc(O)c(O)c2)oc2cc(O)cc(O)c12 [QUERCETIN]
Maximal relaxation: 45.9%
